Reference: US10570178B2, “Selective delivery molecules and methods of use” (Avelas Biosciences, Inc., priority 2011, dated 2020)
Values belong to the molecule of their own block, whether it stands above or below them. Numbered stars: 1 amine (or outer) side, 2 acyl side, 3 side chain; on linkers, the order of the positions; unused ones are H or OH. Square brackets hold non-standard residues; d marks the D form. Ends that are not written are not given here. Cys(Me) = S-methyl-cysteine, CSC[C@H](N[*:1])C(=O)[*:2]; Phe(4-Ac) = CC(=O)c1ccc(C[C@H](N)C(=O)O)cc1; AEA = NCCOCC(=O)O

Experiments:
[1] = target: T1, matrix metalloproteinase-2 (MMP-2) (Homo sapiens, UniProt P08253); experiment: Enzyme dependent fluorescence enhancement and color change: cleavage of FRET SDM by MMP-2; format: biochemical; details: 1 μM SDM
T1 sequence (P08253 110-660): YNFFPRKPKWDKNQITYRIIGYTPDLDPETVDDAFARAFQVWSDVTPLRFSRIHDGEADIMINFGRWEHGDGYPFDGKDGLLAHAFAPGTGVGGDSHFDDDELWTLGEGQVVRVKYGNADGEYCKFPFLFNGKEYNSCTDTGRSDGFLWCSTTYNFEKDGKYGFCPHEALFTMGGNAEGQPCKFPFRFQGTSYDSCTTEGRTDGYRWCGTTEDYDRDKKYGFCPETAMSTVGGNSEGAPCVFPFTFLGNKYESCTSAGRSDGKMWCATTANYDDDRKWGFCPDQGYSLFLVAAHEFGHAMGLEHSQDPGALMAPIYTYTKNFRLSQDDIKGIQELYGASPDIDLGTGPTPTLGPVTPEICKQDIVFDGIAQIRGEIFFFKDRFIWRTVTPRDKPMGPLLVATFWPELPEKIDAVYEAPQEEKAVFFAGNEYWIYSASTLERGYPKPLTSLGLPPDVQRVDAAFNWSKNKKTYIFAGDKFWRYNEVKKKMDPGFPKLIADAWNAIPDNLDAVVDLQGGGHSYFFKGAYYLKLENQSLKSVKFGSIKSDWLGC
Procedure: FIG. 2 exemplifies ratiometric fluorescence changes of selective delivery molecules. In this figure, SDM-9 was cleaved with 1 nM MMP-2 enzyme. The increase of donor (left panel) and decrease in acceptor (right panel) fluorescence is indicative of decreased FRET after peptide cleavage.
Selective delivery molecule 9 was dissolved in TCNB buffer (50 mM Tris, pH 7.5, with 10 mM calcium chloride, 150 mM sodium chloride, and 0.05% BRIJ 35) at room temperature at 1 μM. Fluorescence spectra were recorded on F-2500 fluorescence spectrometer. The Cy5 fluorescence donor was excited using 625 nm light and the emission was scanned from 660 to 800 nm. Peptide cleavage was initiated with addition of matrix metalloproteinase-2 (MMP-2) at a final concentration of 1 nM. The cleavage reaction was complete within 2 hour and the fluorescence spectra indicated FRET disruption and a large 8-fold increase the Cy5 donor emission and 2-fold decrease in the Cy7 emission. The actual intrinsic fluorescence decrease of Cy7 is larger however it is masked by the Cy5 long wavelength shoulder.

HT-1080 xenograft model = experiment: In vivo imaging assay for tumor contrast; design: species or system mouse
Procedure: HT-1080 xenograft model was generated as described in Example 14 and used to evaluate the ability of molecules to provide in vivo tumor fluorescence contrast compared to surrounding tissue. Fluorescent conjugates were tested in HT-1080 tumor-bearing mice once the tumors had reached 100-200 mm^3 in size (typically 1-2 weeks post-tumor cells implantation). Conscious HT-1080 tumor-bearing mice were restrained using a rotating tail injector (Cat. # RTI; Braintree Scientific, MA, USA) and dosed intravenously (tail vein) with the test compound at between 0.1 and 5 nanomoles per mouse in 100 uL saline solution. In preparation for imaging, mice were lightly anesthetized with a mixture of ketamine/xylazine (Cat. # K-113; Sigma, Aldrich, Mo., USA) given intraperitoneally (1 μL/gram body weight) to minimize movement.
Serial whole-body imaging (tumor included) was done using a whole-animal fluorescent visualization imaging system or Olympus stereo fluorescent microscope. The mice were positioned on their backs and imaging was performed from the top to image the ventral side of the animal. […] Contrast was calculated using the following equation: Contrast=(Fluorescence intensity of tumor−Fluorescence intensity of contralateral chest tissue)/Intensity of contralateral chest tissue).
Contrast greater than 0.4 in the whole animal is easily detected by eye in the whole animal image and is good contrast. […]

[2] = tested on: Murine 4T1 tumor model, metastatic cervical lymph nodes; experiment: In vivo detection of cancer metastases to lymph node, emission ratio contrast; design: species or system mouse; details: metastatic vs non-metastatic lymph nodes, peritumoral administration
[3] = tested on: HT-1080 tumor homogenates; experiment: Fluorogenic response from tumor homogenates (gel electrophoresis); format: biochemical, mouse
Procedure: FIG. 4 exemplifies fluorescence enhancement of selective delivery molecule SDM-10 upon cleavage by tumor homogenates. Selective delivery molecule 10 (SDM-10) was cleaved with HT-1080 tumor homogenates. 1 nM MMP-9 or 10 uL tumor tissue homogenates (TH2 and TH3) were mixed with 1 uM […] in 100 uL buffer for 24 h at 37° C. GM6001 is a general broad spectrum inhibitor of MMPs. […] Uncleaved SDM-10 is nonfluorescent due to efficient quenching (second column from left).
HT1080 cells (Cat. # CCL-121; American Type Culture Collection, Va., USA) were grown under exponential growth conditions in humidified atmosphere of 5% CO2 in air at 37° C. until reaching 80-100% confluence before harvesting for mouse implantation. Each nude mouse was hand restrained and injected with 2×10^6 HT-1080 cells into the mammary fat pad using a 25-G needle. HT-1080 tumors were harvested when they had reached 100-200 mm^3 in size (typically 1-2 weeks post-tumor cells implantation).
HT-1080 tumors were homogenized using ultrasonic disruption. 1 nM MMP-9 or 10 μl, tumor tissue homogenates (TH2 and TH3) were mixed with 1 μM SDM-10 in 100 μL buffer for 24 h at 37° C. Selective delivery molecule 6 was used as a fluorescent control of similar size to intact SDM-10. The samples were loaded on a polyacrylamide gel and separated using electrophoresis. […] GM6001 is a general broad spectrum inhibitor of MMPs.

MMP-9 = MMP-9 (Homo sapiens, UniProt P14780); experiment: Enzyme dependent fluorescence enhancement: cleavage of quenched SDM by MMP-9; format: biochemical; details: 1 μM SDM
Chain of MMP-9 (P14780 94-707): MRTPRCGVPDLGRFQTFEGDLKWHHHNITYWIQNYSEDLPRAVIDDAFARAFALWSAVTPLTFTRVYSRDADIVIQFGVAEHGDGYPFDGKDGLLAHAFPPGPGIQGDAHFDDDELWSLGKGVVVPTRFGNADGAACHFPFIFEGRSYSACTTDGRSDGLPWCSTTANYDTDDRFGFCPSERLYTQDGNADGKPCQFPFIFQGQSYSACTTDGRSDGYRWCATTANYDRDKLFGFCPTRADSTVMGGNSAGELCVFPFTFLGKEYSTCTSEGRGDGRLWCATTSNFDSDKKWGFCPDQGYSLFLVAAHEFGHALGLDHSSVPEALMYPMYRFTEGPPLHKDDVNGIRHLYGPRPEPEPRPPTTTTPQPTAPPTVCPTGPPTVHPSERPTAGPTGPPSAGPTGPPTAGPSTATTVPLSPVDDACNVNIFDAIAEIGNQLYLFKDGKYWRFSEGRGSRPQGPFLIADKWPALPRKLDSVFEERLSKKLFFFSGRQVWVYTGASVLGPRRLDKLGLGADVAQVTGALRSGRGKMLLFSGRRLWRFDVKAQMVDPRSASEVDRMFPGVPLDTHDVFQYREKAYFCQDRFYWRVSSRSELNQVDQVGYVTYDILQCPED
Procedure: FIG. 3 exemplifies fluorescence enhancement of selective delivery molecules after protease cleavage. SDM-10 was cleaved with 1 nM MMP-9 enzyme in buffered saline. The Cy5 fluorescence increases >100 fold after peptide cleavage because the quencher dyes is no longer intramolecularly attached to Cy5 and it can no longer efficiently quench Cy5.
Selective delivery molecule 10 was dissolved in TCNB buffer (pH 7.5) at room temperature at 1 μM. Fluorescence spectra were recorded on F-2500 fluorescence spectrometer. Excitation of the Cy5 fluorescence donor was excited at 625 nm and the emission was measured at 669 nm. Peptide cleavage was initiated with addition of MMP-9 at a final concentration of 1 nM. The cleavage reaction was complete within 2 hour and the fluorescence was enhanced >100-fold upon protease cleavage, FIG. 3.

[4] = 1 nM MMP-2, TCNB buffer pH 7.5, excitation 625 nm

- decrease in Cy7 emission after cleavage [1, 4]: 2 fold
- increase in Cy5 donor emission after cleavage [1, 4]: 8 fold
- time to complete cleavage reaction ([1]; 1 nM MMP-2, room temperature): ≤ 2 h
Molecule: SDM-9: prepared analogously to SDM-25 from peptide P-3; Cy5 donor and Cy7 FRET acceptor ([dE][dE][dE][dE][dE][Phe(4-Ac)][AEA]PLG[Cys(Me)]AG[dR][dR][dR][dR][dR][dR][dR][dR][dC]-NH2; not fully specified (some residues, N-terminus))
- Time to maximum contrast (HT-1080 xenograft model; HT-1080 xenograft, IV dosing): Fast (4 < fast < 12)
- Maximum Contrast (HT-1080 xenograft model; tumor vs contralateral chest tissue fluorescence, IV 0.1-5 nanomoles per mouse, imaged 1-24 hours after injection): High (≥0.9 = high)
- Peritumor Maximum Contrast [2]: Low (Low <20%)

Molecule: CNC(=O)[C@H](Cc1c[nH]c2ccccc12)NC(=O)[C@@H](CC(=O)NO)CC(C)C [GM6001, reference compound]
- effect on tumor homogenate cleavage of SDM-10 ([3]; MMP inhibitor added to HT-1080 homogenate with SDM-10): inhibits cleavage

- Cy5 fluorescence enhancement upon protease cleavage (MMP-9; 1 nM MMP-9, excitation 625 nm, emission 669 nm): > 100 fold
- time to complete cleavage reaction (MMP-9; 1 nM MMP-9, room temperature): ≤ 2 h
Molecule: SDM-10: prepared analogously to SDM-25 from peptide P-3; Cy5 fluorophore with dye quencher ([dE][dE][dE][dE][dE][Phe(4-Ac)][AEA]PLG[Cys(Me)]AG[dR][dR][dR][dR][dR][dR][dR][dR][dC]-NH2; numbers in words are those of the source; also: Cy5 fluorophore, quencher dye and mPEG carrier attached, sites not given here)
- cleavage by HT-1080 tumor homogenates ([3]; 1 μM SDM, 10 μL homogenate in 100 μL buffer, 24 h, 37° C.): cleaved and becomes highly fluorescent
- fluorescence of intact, uncleaved form on gel ([3]; polyacrylamide gel): essentially non-fluorescent
